The results in this text go back to patent publication US6831199B1, “Pyrimidine compounds and derivatives thereof” (G. D. Searle & Co., priority 1995, dated 2004).

Structures can show the parent of a compound that is named as a salt. Where two headings read alike, the source gives them in different places. A value given as a limit tells only on which side of the number the result lay.

The target of assay [1] is T1, Human vitronectin receptor (αvβ3) (Homo sapiens, UniProt P05106+P06756).
T1 construct: Human vitronectin receptor (αvβ3) was purified from human placenta; from tissue; host or cells: human placenta
Nature of the assay: Vitronectin adhesion assay (solid phase receptor assay, competition with biotinylated vitronectin). Particulars: read-out: AvB3 IC50. Type of assay: binding. A digest of the protocol:
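Purified human αvβ3 coated overnight at 4 °C in TBS with 1.0 mM Ca++, Mg++, Mn++, pH 7.4; compounds (top final 1.0×10^−4 M) competed with 1 nM biotinylated vitronectin for 2 h at room temperature. Bound ligand detected by HRP anti-biotin/OPD at A450; values normalized to no-competitor controls, four-parameter curve fit.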

For assay [2], the target named is T2, Human fibrinogen receptor (αIIbβ3) (Homo sapiens, UniProt P05106+P08514).
T2 construct: Human fibrinogen receptor (αIIbβ3) was purified from outdated platelets; from tissue; host or cells: outdated human platelets
Nature of the assay: Purified IIb/IIIa receptor assay (solid phase receptor assay, competition with biotinylated vitronectin). The format is binding. As to conditions: read-out: IIb/IIIa IC50. A digest of the protocol: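 Purified platelet αIIbβ3 coated overnight at 4 °C in TBS with 1.0 mM Ca/Mg/Mn, pH 7.4, then BSA-blocked. Compounds (top 1.0×10^−4 M) competed with 1 nM biotinylated vitronectin for 2 h at room temperature. Bound label detected by HRP anti-biotin, A450; values normalized to no-competitor controls, four-parameter fit.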

For a further assay, the system named is platelet rich plasma. Put plainly: Human platelet rich plasma assay (ADP induced platelet aggregation). The format is cell-based. As to conditions: ADP induced platelet aggregation in human platelet rich plasma, read-out: Human PRP. As for the experimental part:
Human Platelet Rich Plasma Assays
Healthy aspirin free donors were selected from a pool of volunteers. The harvesting of platelet rich plasma and subsequent ADP induced platelet aggregation assays were performed as described in Zucker, M. B., “Platelet Aggregation Measured by the Photometric Method”, Methods in Enzymology 169(1989):117-133. Standard venipuncture techniques using a butterfly allowed the withdrawal of 45 mL of whole blood into a 60 mL syringe containing 5 mL of 3.8% trisodium citrate. Following thorough mixing in the syringe, the anti-coagulated whole blood was transferred to a 50 mL conical polyethylene tube. The blood was centrifuged at room temperature for 12 minutes at 200×g to sediment non-platelet cells. Platelet rich plasma was removed to a polyethylene tube and stored at room temperature until used. Platelet poor plasma was obtained from a second centrifugation of the remaining blood at 2000×g for 15 minutes. Platelet counts are typically 300,000 to 500,000 per microliter. Platelet rich plasma (0.45 mL) was aliquoted into siliconized cuvettes and stirred (1100 rpm) at 37° C. for 1 minute prior to adding 50 uL of pre-diluted test compound. After 1 minute of mixing, aggregation was initiated by the addition of 50 uL of 200 uM ADP. Aggregation was recorded for 3 minutes in a Payton dual channel aggregometer (Payton Scientific, Buffalo, N.Y.). The percent inhibition of maximal response (saline control) for a series of test compound dilutions was used to determine a dose response curve.

For the compound “3S-[[2-[[[3-[(aminoiminomethyl)amino]phenyl]carbonyl]amino]acetyl]amino]-4-hydroxybutanoic acid [Example 86]”, the results for the IC50 (in assay [1]; in assay [2]; in the assay on platelet rich plasma) were 8.79 nM, 246 nM and over 200000 nM, respectively.

For the compound `N=C(N)Nc1cccc(C(=O)NCC(=O)NC(CCSc2ccccc2C(=O)O)CC(=O)O)c1` (racemic) [60(B), (±)2-[3-[[2-[[[3-[(aminoiminomethyl)amino]phenyl)carbonyl]amino]acetyl]amino]-4-carboxybutyl]thio]benzoic acid, trifluoroacetate salt], the results for the IC50 (in assay [1]; in assay [2]; in the assay with platelet rich plasma) were 1.21 nM, 72.7 nM and over 200000 nM, respectively.

`CCOC(=O)CC(NC(=O)CNC(=O)c1cccc(NC(=N)N)c1)c1cccnc1` (racemic) [Example 1, (±)ethyl β-[[2-[[[3-[(aminoiminomethyl)amino]phenyl]carbonyl]amino]acetyl]amino]pyridine-3-propanoate, bis(trifluoroacetate)salt]: the IC50 in assay [1] was 76.9 nM; in assay [2], 8350 nM; with platelet rich plasma (Homo sapiens, Platelet) it was over 200000 nM.

On to `N=C(N)Nc1cccc(C(=O)NCC(=O)NC(CC(=O)O)c2ccc3c(c2)OCO3)c1` (racemic) [Example 6, (±)β-[[2-[[[3-[(aminoiminomethyl)amino]phenyl]carbonyl]amino]acetyl]amino]-1,3-benzodioxole-5-propanoic acid, trifluoroacetate salt], for which the IC50 in assay [1] worked out at 1.04 nM; in assay [2], 15.9 nM; in the assay on platelet rich plasma (Homo sapiens, Platelet), 80000 nM.

`O=C(O)CC(NC(=O)CNC(=O)c1ccc(Cl)c(NC2=NCCCCC2)c1)c1cccnc1` (racemic) [Example 21, (±)β-[[2-[[[4-chloro-3-[(3,4,5,6-tetrahydro-2H-azepin-7-yl)amino]phenyl]carbonyl]amino]acetyl]amino]pyridine-3-propanoic acid, bis TFA Salt]: the IC50 in assay [1] is 2.44 nM; in assay [2], 1910 nM; with platelet rich plasma (Homo sapiens, Platelet), over 200000 nM.

Consider `O=C(O)CC(NC(=O)CNC(=O)c1cc(NC2=NCCCCC2)cc(NC2=NCCCCC2)c1)c1cccnc1` (racemic) [Example 22, (±)β-[[2-[[[3,5-bis[(3,4,5,6-tetrahydro-2H-azepin-7-yl)amino]phenyl]carbonyl]amino]acetyl]amino]pyridine-3-propanoic acid, tris(trifluoroacetate)salt], for which the IC50 was 1.37 nM in assay [1]; 280 nM in assay [2]; over 200000 nM in the assay with platelet rich plasma (Homo sapiens, Platelet).

On to `N=C(Nc1cccc(C(=O)NCC(=O)NC(CC(=O)O)c2cccnc2)c1)c1ccccc1` (racemic) [Example 26, (±)β-[[2-[[[3-[(iminophenylmethyl]amino]phenyl]carbonyl]amino]acetyl]amino]pyridine-3-propanoic acid, bis(trifluoroacetate)salt], for which the IC50 in assay [1] is 14.2 nM; in assay [2], 809 nM; in the assay on platelet rich plasma (Homo sapiens, Platelet) it was over 200000 nM.

Consider `N=C(N)Nc1cccc(C(=O)NCC(=O)NC(CC(=O)O)c2ccc(-c3ccccc3)cc2)c1` (racemic) [Example 37, (±)β-[[2-[[[3-[(aminoiminomethyl)amino]phenyl]carbonyl]amino]acetyl]amino][1,1′-biphenyl]-4-propanoic acid, trifluoroacetate salt], for which the IC50 in assay [1] is 0.88 nM; in assay [2], 13.9 nM; with platelet rich plasma (Homo sapiens, Platelet), over 20000 nM.

For the compound `N=C(N)Nc1cc(C(=O)NCC(=O)NC(CC(=O)O)c2cc(C(F)(F)F)cc(C(F)(F)F)c2)cc(C(F)(F)F)c1` (racemic) [Example 39, (±)β-[[(2-[[[3-[(aminoiminomethyl)amino]-5-(trifluoromethyl)phenyl]carbonyl]amino]acetyl]amino]-3,5-bis(trifluoromethyl)benzenepropanoic acid, trifluoroacetate salt], the IC50 is 12.2 nM in assay [1]; 1540 nM in assay [2]; over 20000 nM in the assay with platelet rich plasma (Homo sapiens, Platelet).

In the case of `N=C(N)Nc1cccc(C(=O)NCC(=O)NC(CC(=O)O)c2cccc3ccccc23)c1` (racemic) [Example 41, (±)β-[[2-[[[3-[(aminoiminomethyl)amino]phenyl]carbonyl]amino]acetyl]amino]naphthalene-1-propanoic acid, trifluoroacetate salt], the IC50 is 12.1 nM in assay [1]; 830 nM in assay [2]; over 200000 nM in the assay on platelet rich plasma (Homo sapiens, Platelet).

Consider `COC(=O)CC(CC(=O)O)NC(=O)CNC(=O)c1cccc(NC(=N)N)c1` (racemic) [Example 54, (±)hydrogen methyl 3-[[2-[[[3-[(aminoiminomethyl)amino]phenyl]carbonyl]amino]acetyl]amino]pentanedioate, trifluoroacetate salt], for which the IC50 is 10.7 nM in assay [1]; 175 nM in assay [2]; over 200000 nM in the assay on platelet rich plasma (Homo sapiens, Platelet).

As to `N=C(N)Nc1cccc(C(=O)NCC(=O)NC(CC(=O)O)c2ccco2)c1` (racemic) [Example 55, (±)β-[[2-[[[3-[(aminoiminomethyl)amino]phenyl]carbonyl]amino]acetyl]amino]furan-2-propanoic acid, trifluoroacetate salt], the IC50 in assay [1] was 4.77 nM; in assay [2], 117 nM; with platelet rich plasma (Homo sapiens, Platelet), over 200000 nM.

Turning to `COC(=O)c1ccccc1SCCC(CC(=O)O)NC(=O)CNC(=O)c1cccc(NC(=N)N)c1` (racemic) [Example 62, (±)methyl 2-[[3-[2-[[[3-[(aminoiminomethyl)amino]phenyl]carbonyl]amino]acetyl]amino]-4-carboxybutyl]thio]benzoate, trifluoroacetate salt], the IC50 is 1.42 nM in assay [1]; 28.4 nM in assay [2]; over 200000 nM in the assay with platelet rich plasma (Homo sapiens, Platelet).

Regarding `CN(CC(=O)NC(CC(=O)O)c1cccnc1)C(=O)c1cccc(NC(=N)N)c1` (racemic) [Example 80, (±)β-[[2-[[[3-[(aminoiminomethyl)amino]phenyl]carbonyl]methylamino]acetyl]amino]pyridine-3-propanoic acid, bis(trifluoroacetate)salt], the IC50 worked out at 9.49 nM in assay [1]; 4.35 nM in assay [2]; 30000 nM in the assay with platelet rich plasma (Homo sapiens, Platelet).

Regarding `N=C(N)Nc1cccc(C(=O)NCC(=O)NC(CC(=O)O)c2ccccc2O)c1` (racemic) [Example 87, (±)sodium β-[[2-[[[3-[(aminoiminomethyl)amino]phenyl]carbonyl]amino]acetyl]amino]-2-hydroxybenzenepropanoate, sodium salt, trifluoroacetate salt], the IC50 is 6.35 nM in assay [1]; 732 nM in assay [2]; over 200000 nM in the assay with platelet rich plasma (Homo sapiens, Platelet).

As to `N=C(N)Nc1cc(C(=O)NCC(=O)NC(CC(=O)O)c2cc(Cl)cc(Cl)c2)cc(C(F)(F)F)c1` (racemic) [Example 177, (±)β-[[2-[[[3-[(aminoiminomethyl)amino]-5-(trifluoromethyl)phenyl]carbonyl]amino]acetyl]amino]-3,5-dichlorobenzenepropanoic acid, trifluoroacetate salt], the IC50 is 0.58 nM in assay [1]; 137 nM in assay [2]; over 20000 nM in the assay with platelet rich plasma (Homo sapiens, Platelet).

On to `O=C(O)CC(NC(=O)CNC(=O)c1cccc(NC2=NCCN2)c1)c1cc(Cl)cc(Cl)c1` (racemic) [Example 191, (±)β-[[2-[[[3-[(4,5-dihydro-1H-imidazol-2-yl)amino]phenyl]carbonyl]amino]acetyl]amino]-3,5-dichlorobenzenepropanoic acid, trifluoroacetate salt], for which the IC50 is 0.49 nM in assay [1]; 70.3 nM in assay [2]; over 20000 nM with platelet rich plasma (Homo sapiens, Platelet).

In the case of `Cc1cc(C)cc(C(CC(=O)O)NC(=O)CNC(=O)c2cccc(NC(=N)N)c2)c1` (racemic) [Example 193, (±)β-[[2-[[[3-[(aminoiminomethyl)amino]phenyl]carbonyl]amino]acetyl]amino]-3,5-dimethylbenzenepropanoic acid, trifluoroacetate salt], the IC50 in assay [1] is 2.56 nM; in assay [2] it was 209 nM; in the assay with platelet rich plasma (Homo sapiens, Platelet) it was over 20000 nM.

`N=C(N)Nc1cccc(C(=O)NCC(=O)NC(CC(=O)O)c2ccc(Br)s2)c1` (stereo not drawn) [Example 366, β-[[2-[[[3-[(aminoiminomethyl)amino]phenyl]carbonyl]amino]acetyl]amino]-5-bromothiophene-2-propanoic acid, trifluoroacetate salt, monohydrate]: the IC50 in assay [1] stood at 0.44 nM; in assay [2], 91.3 nM.

On to “ethyl 3S-[[2-[[[3-[[(cyanoimino)(methylamino)methyl]amino]phenyl]carbonyl]amino]acetyl]amino]-4-pentynoate [Example 140]”, for which the IC50 in assay [1] is 4590 nM; in assay [2], over 100000 nM.
